Results taken from ChEMBL document CHEMBL3259629, “Discovery and optimization of piperidyl-1,2,3-triazole ureas as potent, selective, and in vivo-active inhibitors of α/β-hydrolase domain containing 6 (ABHD6)” (J Med Chem, 2013).

Assays:
Details in all cases: Neuro2a, 3 nM
[1] = molecular target: Tripeptidyl-peptidase 2 (Mus musculus) (UniProt Q64514)
Description: Inhibition of Tpp2 in mouse Neuro2a cells at 3 nM after 4 hrs by ABPP-SILAC assay

[2] = molecular target: Acyl-protein thioesterase 1 (Mus musculus) (UniProt P97823)
Description: Inhibition of Lypla1 in mouse Neuro2a cells at 3 nM after 4 hrs by ABPP-SILAC assay

[3] = molecular target: T1, Acetylcholinesterase (Mus musculus) (UniProt P21836)
T1 sequence (whole entry): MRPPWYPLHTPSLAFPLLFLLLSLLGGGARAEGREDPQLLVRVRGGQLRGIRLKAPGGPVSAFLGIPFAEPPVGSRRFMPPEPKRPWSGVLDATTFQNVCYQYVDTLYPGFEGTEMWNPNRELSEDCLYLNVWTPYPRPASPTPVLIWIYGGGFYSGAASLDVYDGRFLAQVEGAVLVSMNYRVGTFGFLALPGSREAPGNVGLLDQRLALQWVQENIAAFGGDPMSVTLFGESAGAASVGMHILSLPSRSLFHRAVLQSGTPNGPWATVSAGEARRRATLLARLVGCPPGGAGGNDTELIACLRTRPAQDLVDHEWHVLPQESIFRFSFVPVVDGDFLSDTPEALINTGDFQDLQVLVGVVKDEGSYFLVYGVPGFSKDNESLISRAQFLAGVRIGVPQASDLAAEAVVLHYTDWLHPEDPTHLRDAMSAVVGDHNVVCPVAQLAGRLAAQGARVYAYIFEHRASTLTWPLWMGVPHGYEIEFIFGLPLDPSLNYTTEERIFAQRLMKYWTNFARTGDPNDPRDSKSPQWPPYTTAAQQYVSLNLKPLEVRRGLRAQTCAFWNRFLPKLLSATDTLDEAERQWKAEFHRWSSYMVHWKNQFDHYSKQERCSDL
Description: Inhibition of Ache in mouse Neuro2a cells at 3 nM after 4 hrs by ABPP-SILAC assay

[4] = molecular target: T2, Lysosomal protective protein (Mus musculus) (UniProt P16675)
T2 sequence (whole entry): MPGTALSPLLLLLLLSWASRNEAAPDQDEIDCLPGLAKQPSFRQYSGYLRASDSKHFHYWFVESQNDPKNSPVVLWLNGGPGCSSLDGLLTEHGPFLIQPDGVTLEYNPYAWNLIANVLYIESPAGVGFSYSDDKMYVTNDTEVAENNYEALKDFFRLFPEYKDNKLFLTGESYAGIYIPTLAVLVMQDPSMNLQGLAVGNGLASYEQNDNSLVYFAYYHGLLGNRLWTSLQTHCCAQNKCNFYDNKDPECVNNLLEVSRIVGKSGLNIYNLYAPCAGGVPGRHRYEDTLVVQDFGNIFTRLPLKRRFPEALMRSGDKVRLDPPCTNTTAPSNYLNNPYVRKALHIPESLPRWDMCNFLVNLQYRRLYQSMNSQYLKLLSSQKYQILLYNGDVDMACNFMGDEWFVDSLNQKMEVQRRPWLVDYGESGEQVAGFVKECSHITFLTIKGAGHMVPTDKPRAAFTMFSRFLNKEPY
Description: Inhibition of Ctsa in mouse Neuro2a cells at 3 nM after 4 hrs by ABPP-SILAC assay

[5] = molecular target: Platelet-activating factor acetylhydrolase 2, cytoplasmic (Mus musculus) (UniProt Q8VDG7)
Description: Inhibition of Pafah2 in mouse Neuro2a cells at 3 nM after 4 hrs by ABPP-SILAC assay

[6] = molecular target: T3, Calcium-independent phospholipase A2-gamma (Mus musculus) (UniProt Q8K1N1)
T3 sequence (whole entry): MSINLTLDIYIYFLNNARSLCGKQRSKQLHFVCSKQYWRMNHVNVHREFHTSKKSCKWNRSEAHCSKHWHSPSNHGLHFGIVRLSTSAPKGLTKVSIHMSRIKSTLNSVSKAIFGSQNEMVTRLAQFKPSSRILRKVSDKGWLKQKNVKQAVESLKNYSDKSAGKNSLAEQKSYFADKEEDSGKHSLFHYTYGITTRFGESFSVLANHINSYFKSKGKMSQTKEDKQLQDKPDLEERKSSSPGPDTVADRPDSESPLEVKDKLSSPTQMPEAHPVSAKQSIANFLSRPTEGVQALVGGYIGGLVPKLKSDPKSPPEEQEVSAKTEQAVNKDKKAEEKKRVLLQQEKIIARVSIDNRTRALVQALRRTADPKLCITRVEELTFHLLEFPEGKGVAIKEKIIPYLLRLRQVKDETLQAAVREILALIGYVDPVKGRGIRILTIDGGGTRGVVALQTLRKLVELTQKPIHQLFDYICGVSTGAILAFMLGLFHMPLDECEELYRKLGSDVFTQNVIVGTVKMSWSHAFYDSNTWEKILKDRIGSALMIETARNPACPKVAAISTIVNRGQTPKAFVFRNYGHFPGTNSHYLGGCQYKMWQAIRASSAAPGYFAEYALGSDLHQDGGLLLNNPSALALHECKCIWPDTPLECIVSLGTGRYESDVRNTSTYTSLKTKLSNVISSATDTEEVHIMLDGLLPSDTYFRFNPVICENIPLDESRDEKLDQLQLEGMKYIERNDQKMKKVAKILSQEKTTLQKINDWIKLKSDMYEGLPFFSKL
Description: Inhibition of Pnpla8 in mouse Neuro2a cells at 3 nM after 4 hrs by ABPP-SILAC assay

[7] = molecular target: 1-acylglycerol-3-phosphate O-acyltransferase ABHD5 (Mus musculus) (UniProt Q9DBL9)
Description: Inhibition of Abhd5 in mouse Neuro2a cells at 3 nM after 4 hrs by ABPP-SILAC assay

[8] = molecular target: T4, Retinoid-inducible serine carboxypeptidase (Mus musculus) (UniProt Q920A5)
T4 sequence (whole entry): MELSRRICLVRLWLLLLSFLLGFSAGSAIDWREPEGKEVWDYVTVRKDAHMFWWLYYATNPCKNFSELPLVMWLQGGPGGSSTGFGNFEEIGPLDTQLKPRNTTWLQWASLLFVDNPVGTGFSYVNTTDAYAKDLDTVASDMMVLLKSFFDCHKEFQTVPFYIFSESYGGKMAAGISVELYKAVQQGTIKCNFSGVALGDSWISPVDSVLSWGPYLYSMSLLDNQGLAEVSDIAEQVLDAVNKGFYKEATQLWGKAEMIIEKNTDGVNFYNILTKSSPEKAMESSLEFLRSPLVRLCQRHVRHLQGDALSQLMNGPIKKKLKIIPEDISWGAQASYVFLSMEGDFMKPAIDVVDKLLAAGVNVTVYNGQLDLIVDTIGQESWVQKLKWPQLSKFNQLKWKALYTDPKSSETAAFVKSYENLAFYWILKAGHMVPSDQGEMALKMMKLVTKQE
Description: Inhibition of Scpep1 in mouse Neuro2a cells at 3 nM after 4 hrs by ABPP-SILAC assay

[9] = molecular target: T5, Monoacylglycerol lipase ABHD6 (Mus musculus) (UniProt Q8R2Y0)
T5 sequence (whole entry): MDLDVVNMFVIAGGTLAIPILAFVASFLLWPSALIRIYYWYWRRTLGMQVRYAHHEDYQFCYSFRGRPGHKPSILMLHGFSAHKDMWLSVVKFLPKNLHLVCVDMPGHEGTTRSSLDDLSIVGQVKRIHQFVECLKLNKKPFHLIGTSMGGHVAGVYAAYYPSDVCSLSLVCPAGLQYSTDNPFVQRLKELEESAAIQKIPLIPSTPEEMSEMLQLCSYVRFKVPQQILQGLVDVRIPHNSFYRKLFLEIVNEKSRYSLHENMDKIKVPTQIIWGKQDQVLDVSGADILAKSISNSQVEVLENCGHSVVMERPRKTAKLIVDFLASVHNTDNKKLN
Description: Inhibition of Abhd6 in mouse Neuro2a cells at 3 nM after 4 hrs by ABPP-SILAC assay

Platelet-activating factor acetylhydrolase 2, cytoplasmic (Mus musculus), sequence (Q8VDG7 whole entry): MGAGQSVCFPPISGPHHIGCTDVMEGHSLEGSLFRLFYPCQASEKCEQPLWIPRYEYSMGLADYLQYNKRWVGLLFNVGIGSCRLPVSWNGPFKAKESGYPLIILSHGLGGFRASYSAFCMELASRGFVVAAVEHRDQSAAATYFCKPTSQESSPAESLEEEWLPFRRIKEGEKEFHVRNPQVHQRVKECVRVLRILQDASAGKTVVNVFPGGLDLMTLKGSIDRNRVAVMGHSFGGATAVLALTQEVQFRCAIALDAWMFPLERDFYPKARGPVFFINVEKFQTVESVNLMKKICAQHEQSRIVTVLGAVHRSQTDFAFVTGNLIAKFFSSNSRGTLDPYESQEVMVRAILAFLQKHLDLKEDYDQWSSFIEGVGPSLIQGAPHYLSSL
Tripeptidyl-peptidase 2 (Mus musculus), sequence (Q64514 whole entry): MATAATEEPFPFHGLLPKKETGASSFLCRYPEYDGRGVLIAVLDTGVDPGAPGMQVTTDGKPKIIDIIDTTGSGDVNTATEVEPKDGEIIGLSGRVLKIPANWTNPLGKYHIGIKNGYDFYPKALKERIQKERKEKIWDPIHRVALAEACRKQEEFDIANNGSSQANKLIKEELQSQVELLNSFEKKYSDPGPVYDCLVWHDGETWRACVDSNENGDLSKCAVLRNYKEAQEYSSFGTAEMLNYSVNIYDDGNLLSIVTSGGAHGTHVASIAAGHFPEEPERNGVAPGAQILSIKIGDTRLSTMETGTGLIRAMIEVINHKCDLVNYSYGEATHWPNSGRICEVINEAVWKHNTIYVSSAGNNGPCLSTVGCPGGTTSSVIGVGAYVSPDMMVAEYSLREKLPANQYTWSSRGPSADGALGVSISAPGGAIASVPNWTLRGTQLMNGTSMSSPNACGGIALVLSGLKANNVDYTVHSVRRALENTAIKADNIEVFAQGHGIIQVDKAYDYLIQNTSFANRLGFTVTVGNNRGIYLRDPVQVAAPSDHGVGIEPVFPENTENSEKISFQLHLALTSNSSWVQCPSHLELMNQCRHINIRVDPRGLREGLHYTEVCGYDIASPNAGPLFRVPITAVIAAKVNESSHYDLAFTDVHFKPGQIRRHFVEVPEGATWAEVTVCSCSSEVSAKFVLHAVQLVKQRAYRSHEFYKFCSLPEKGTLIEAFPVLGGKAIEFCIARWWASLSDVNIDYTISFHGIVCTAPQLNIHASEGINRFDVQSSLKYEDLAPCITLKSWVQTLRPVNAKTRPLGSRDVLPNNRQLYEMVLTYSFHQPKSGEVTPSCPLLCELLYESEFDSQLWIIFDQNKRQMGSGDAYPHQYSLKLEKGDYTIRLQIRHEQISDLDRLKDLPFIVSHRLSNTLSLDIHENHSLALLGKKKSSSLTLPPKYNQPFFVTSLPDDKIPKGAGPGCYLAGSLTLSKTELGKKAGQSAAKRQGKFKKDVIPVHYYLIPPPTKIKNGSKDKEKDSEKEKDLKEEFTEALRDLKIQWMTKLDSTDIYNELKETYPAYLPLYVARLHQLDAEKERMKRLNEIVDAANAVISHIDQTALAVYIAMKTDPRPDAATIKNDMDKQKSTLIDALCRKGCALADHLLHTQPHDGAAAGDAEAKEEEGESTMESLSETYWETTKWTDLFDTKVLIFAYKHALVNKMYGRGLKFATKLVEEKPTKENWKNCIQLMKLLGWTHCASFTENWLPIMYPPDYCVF
1-acylglycerol-3-phosphate O-acyltransferase ABHD5 (Mus musculus), sequence (Q9DBL9 whole entry, looked up): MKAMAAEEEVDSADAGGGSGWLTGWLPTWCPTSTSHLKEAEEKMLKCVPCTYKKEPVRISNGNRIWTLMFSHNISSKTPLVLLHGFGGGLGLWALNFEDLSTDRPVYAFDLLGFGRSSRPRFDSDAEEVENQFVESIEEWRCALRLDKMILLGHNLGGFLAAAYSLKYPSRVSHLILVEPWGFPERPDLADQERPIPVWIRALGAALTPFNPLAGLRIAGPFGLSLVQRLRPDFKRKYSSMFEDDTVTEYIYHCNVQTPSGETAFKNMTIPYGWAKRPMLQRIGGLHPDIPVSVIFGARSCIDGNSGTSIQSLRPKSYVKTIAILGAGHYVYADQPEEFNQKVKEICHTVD
Acyl-protein thioesterase 1 (Mus musculus), sequence (P97823 whole entry): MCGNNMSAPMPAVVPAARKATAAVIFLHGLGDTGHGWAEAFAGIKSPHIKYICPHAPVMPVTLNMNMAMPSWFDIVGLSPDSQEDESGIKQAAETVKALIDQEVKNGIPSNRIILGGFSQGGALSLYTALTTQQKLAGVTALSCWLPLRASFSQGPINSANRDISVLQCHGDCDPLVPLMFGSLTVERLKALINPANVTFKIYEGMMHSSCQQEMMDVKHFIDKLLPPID

| Structure (SMILES) | inhibition [1] [%] | inhibition [2] [%] | inhibition [3] [%] | inhibition [4] [%] | inhibition [5] [%] | inhibition [6] [%] | inhibition [7] [%] | inhibition [8] [%] | inhibition [9] [%] |
| --- | --- | --- | --- | --- | --- | --- | --- | --- | --- |
| O=C(N1CCCCC1c1ccccc1)n1cc(-c2ccc(-c3cccc(CO)c3)cc2)nn1 (racemic) | < 50 | < 50 | < 50 | < 50 | < 50 | < 50 | < 50 | < 50 | > 90 |
| O=C(c1cccc(-c2ccc(-c3cn(C(=O)N4CCCCC4c4ccccc4)nn3)cc2)c1)N1CCCCC1 (racemic) | < 50 | < 50 | < 50 | < 50 | < 50 | < 50 | < 50 | < 50 | > 80 |
| O=C(O)c1cccc(-c2ccc(-c3cn(C(=O)N4CCCCC4Cc4ccccc4)nn3)cc2)c1 (racemic) | < 50 | < 50 | < 50 | < 50 | < 50 | < 50 | < 50 | < 50 | > 90 |
